Tests used:
[1] = Cytotoxicity against human CRL8155 cells; format: cell-based
[2] = Inhibition of recombinant Trypanosoma cruzi sterol 14-alpha-demethylase by spectrophotometry
Trypanosoma cruzi = assay: microbe, parasite or virus in culture; conditions: Tulahuen, NIH3T3, 168 h
Description: Antitrypanosomal activity against Trypanosoma cruzi Tulahuen infected in 3T3 cells after 7 days by beta-galactosidase assay

physchem = conditions: octanol/water
Description: Lipophilicity, log P of the compound

Kd [2]: 490 nM
EC50 (Trypanosoma cruzi): 0.2 nM
logP (physchem): 5
SMILES: COc1ccc(NCc2cncn2Cc2ccc(-c3ccccc3)cc2N)nc1-c1ccccc1
IC50 [1]: > 5000 nM
